Results taken from patent US20060270631A1, “Methods for the treatment and prevention of angiogenic diseases” (priority 2005, published 2006).
pIC50: −log10 of the molar value.

Columns and labels:
human RECs = assay: VEGF-stimulated proliferation of human RECs ([3H]thymidine incorporation); type: cell-based; conditions: VEGF 50 ng/mL, 12 hours + 2 hours [3H]thymidine, serum-starved human RECs
Method: FIG. 6. Effects of Compound II on VEGF-stimulated proliferation of RECs. Human RECs were serum-starved for 24 hours and then left untreated or incubated with VEGF (50 ng/mL) in the presence of the indicated concentration (in μM) of Compound II for 12 hours. [3H]Thymidine was then added and the cultures were incubated an additional 2 hours. The amount of [^3H]thymidine incorporated into DNA was determined. Values represent the mean±SD of duplicate samples in a typical experiment.
Cell proliferation assay. Cells were grown to confluence in 24-well tissue culture plates and serum-starved overnight as described above. Cells were then treated with 50 ng/mL of VEGF and varying concentrations of Compound II for 12 hours. At that time, 16 μCi of [3H]thymidine was added to each well, and the cultures were incubated for an additional 2 hours. The media was then removed by aspiration, the cells were washed twice with cold PBS, and 0.8 mL of ice-cold 10% trichloroacetic acid was added to each well. […] The samples were incubated at 37° C. for 30 minutes, scraped into scintillation vials, and the amount of ^3H in the recovered genomic DNA was quantified by scintillation counting.
We next evaluated the effects of VEGF on the proliferation of human RECs by measuring the effects of the growth factor of the incorporation of [^3H]thymidine into the DNA of serum-starved cells. […]

endogenous SK = assay: Cellular S1P formation assay in HUVECs; type: cell-based, human; conditions: read-out: drug concentration that decreases S1P formation by 50%
Method: FIG. 2. Inhibition of S1P production in HUVECs by SK inhibitors. […] After 15 minutes, cells were lysed and extracted with chloroform: methanol, and the amounts of [^3H]sphingosine in the organic phase and [^3H]S1P in the aqueous phase were then determined. Values represent the mean±sd SK activity.
Cellular S1P formation assay. Cells were grown to confluency in 24-well tissue culture plates and serum-starved for 24 hours as described above. Cells were then treated with 1% DMSO (as the drug vehicle), 20 μM dimethylsphingosine, or the indicated concentration of an SK inhibitor for 4 hours. The cells were then incubated with [^3H]sphingosine for 15 minutes, and the formation of [^3H]S1P was measured as previously described (French et al., Cancer Res 63: 5962 (2003)). […] [^3 H]Sphingosine was then added for 15 minutes, and its conversion to [^3H]S1P was measured as indicated above.
A cell-based assay in which the phosphorylation of exogenously added [^3H]sphingosine to [^3H]S1P by endogenous SK can be quantified (French et al., Cancer Res 63: 5962 (2003)) was used to evaluate the effects of test compounds on the activity of SK in intact cells. […] Similarly, the enzymatic activity of SK in bovine RECs, and its sensitivity to SK inhibitors were assessed. […]

[1] = tested on: VEGF-induced vascular permeability; assay: VEGF-induced vascular leakage (Miles assay) in nude mice; type: in vivo, mouse; conditions: 100 mg/kg intraperitoneal, FIG. 7A

SMILES: Oc1ccc(Nc2nc(-c3ccc(Cl)cc3)cs2)cc1 [Compound II]
- concentration blocking the mitogenic response to VEGF (human RECs): ≥ 1.3 µM
- pIC50 (endogenous SK): 6.70
- inhibition of the in vivo vascular leakage response to VEGF [1]: more than 80%
